Values of other authors, collected in patent publication US20110293691A1, “MULTIMODAL ADHESION BARRIER” (priority 2010, published 2011).

System: rat model
Settings: oral or intraperitoneal, about one week prior to surgery and three weeks postoperatively

In the case of O=C(CC1NCCCC1O)Cn1cnc2cc(Br)c(Cl)cc2c1=O (stereo not shown) [Halofuginone, 7-bromo-6-chloro-3-[3-(3-hydroxy-2-piperidinyl)-2-oxopropyl]-4(3H)], the “prevention of adhesions (in words)” value is listed as “prevent adhesions in a rat model in a dose dependent manner”.
